≈ marks a conversion by molar mass, not a printed value.
Assays:
[1] = (§1) Inhibition of replicating Mycobacterium tuberculosis H37Rv NDH assessed as cell growth inhibition after 7 days by MABA method; settings: 168 h
[2] = Intrinsic clearance in human microsomes; type: ADME, Microsome; settings: read-out: CLH
[3] = Protein binding in human plasma at 1 uM after 18 hrs by equilibrium dialysis; type: ADME, cell-free; settings: read-out: PPB (converted)
[4] = Intrinsic clearance in rat hepatocytes assessed per million cells; type: ADME, cell-based, Hepatocyte; settings: read-out: CLH
[5] = Aqueous solubility of compound; type: physicochemical; settings: buffer
[6] = Lipophilicity, logD of compound at pH 7.4; settings: buffer
[7] = Metabolic stability in mouse liver microsomes assessed as half life for metabolic turnover at 0.1 to 10 uM preincubated for 60 mins in presence of NADPH measured up to 60 mins by mass spectroscopic analysis; type: ADME, microsome
[8] = system: Mycobacterium tuberculosis H37Rv; experiment: as §1
[9] = Metabolic stability in rat liver microsomes assessed as half life for metabolic turnover at 0.1 to 10 uM preincubated for 60 mins in presence of NADPH measured up to 60 mins by mass spectroscopic analysis; type: ADME, microsome
[10] = Metabolic stability in human liver microsomes assessed as half life for metabolic turnover at 0.1 to 10 uM preincubated for 60 mins in presence of NADPH measured up to 60 mins by mass spectroscopic analysis; type: ADME, microsome
HepG2 = experiment: Cytotoxicity against human HepG2 cells after 24 hrs in presence of glucose by MTT assay; type: cell-based; settings: hepg2, 24 h

O=c1c(Br)c(-c2ccc(N3CCCCC3)cc2)[nH]c2ccccc12
IC50 [1]: 0.6 µM

Cc1c(-c2ccc(N3CC[C@@H]3C(=O)N(C)C)cc2)[nH]c2cc(F)cc(F)c2c1=O
IC50 [1]: > 10 µM

COc1cc2[nH]c(-c3ccc(N4CCCCC4)cc3)c(C)c(=O)c2cc1F
microsomal CLint [2]: > 300 µL/min/mg
fraction unbound at 18 h, 1 µM [3]: 0.012
hepatocyte CLint [4]: 231 µL/min/1e6 cells
solubility [5]: 2 µM (≈ 0.733 µg/mL)
IC50 [1]: 0.52 µM
logD [6]: 3.9

Cc1c(-c2ccc(N3CCC(F)(F)CC3)cc2)[nH]c2cc(F)cc(F)c2c1=O
IC50 [1]: > 10 µM

Cc1c(-c2ccc(N3CC(C)(O)C3)cc2)[nH]c2cc(F)cc(F)c2c1=O
IC50 [1]: > 10 µM

Cc1c(-c2ccc(N3CCN(Cc4ccccc4)CC3)cc2)[nH]c2ccccc2c1=O
IC50 [1]: 5.74 µM

Cc1c(-c2ccc(N3CCCC(C)(O)C3)cc2)[nH]c2cc(F)cc(F)c2c1=O (centres undefined)
IC50 [1]: 5.01 µM

Cc1c(-c2ccc(-n3cc(F)c(F)c3)cc2)[nH]c2cc(F)cc(F)c2c1=O
half-life at up to 10 µM [7]: ≥ 60 min
IC50 [1]: > 10 µM
IC90 [8]: > 10 µM
half-life at up to 10 µM [9]: ≥ 60 min
half-life at up to 10 µM [10]: ≥ 60 min

O=c1c(Br)c(-c2ccc(N3CCC(F)CC3)cc2)[nH]c2ccccc12
IC50 [1]: > 10 µM

COc1ccc2c(=O)cc(-c3ccc(N4CCC(F)CC4)cc3)[nH]c2c1
IC50 [1]: > 10 µM

Cc1c(-c2ccc(N3CCC[C@H]3COCc3ccccc3)cc2)[nH]c2cc(F)cc(F)c2c1=O
IC50 [1]: 0.96 µM

COc1ccc2c(=O)c(Cl)c(-c3ccc(N4CCCCC4)cc3)[nH]c2c1
microsomal CLint [2]: > 300 µL/min/mg
fraction unbound at 18 h, 1 µM [3]: 0.012
hepatocyte CLint [4]: 48.9 µL/min/1e6 cells
solubility [5]: 0.5 µM (≈ 0.184 µg/mL)
IC50 [1]: 2.82 µM
logD [6]: 3.6

Cc1c(-c2ccc(N3CCC[C@@H]3C(=O)N3CCC(F)CC3)cc2)[nH]c2cc(F)cc(F)c2c1=O
IC50 [1]: > 10 µM

Cc1c(-c2ccc(N3CCC(F)CC3)cc2)[nH]c2cc(F)cc(F)c2c1=O
half-life at up to 10 µM [7]: 4.4 min
Activity (HepG2): 102.2 µM
IC50 [1]: 0.94 to 0.95 µM
IC90 [8]: 1.83 µM
half-life at up to 10 µM [9]: 8.4 min
half-life at up to 10 µM [10]: 5.7 min

COc1cc2[nH]c(-c3ccc(N4CCCCC4)cc3)c(C)c(=O)c2cc1OC
IC50 [1]: > 10 µM

Cc1c(-c2ccc(N3CCC(Cc4ccccc4)CC3)cc2)[nH]c2ccccc2c1=O
IC50 [1]: > 10 µM

Cc1c(-c2ccc(N3CCC[C@@H](C)C3)cc2)[nH]c2cc(F)cc(F)c2c1=O
microsomal CLint [2]: > 300 µL/min/mg
fraction unbound at 18 h, 1 µM [3]: 0.005
hepatocyte CLint [4]: 183 µL/min/1e6 cells
solubility [5]: < 0.5 µM
IC50 [1]: 0.47 µM
logD [6]: 4.7

Cc1c(-c2ccc(N3CCN(Cc4ccccc4)CC3)cc2)[nH]c2ccc(F)cc2c1=O
IC50 [1]: > 10 µM

Cc1c(-c2ccc(N3CCC[C@@H]3C(=O)NC3CCOCC3)cc2)[nH]c2cc(F)cc(F)c2c1=O
IC50 [1]: > 10 µM

Cc1c(-c2ccc(N(C)C)cc2)[nH]c2cc(F)cc(F)c2c1=O
IC50 [1]: 0.41 µM

O=c1c(Cl)c(-c2ccc(N3CCC(F)CC3)cc2)[nH]c2ccccc12
IC50 [1]: > 10 µM

COc1cc2[nH]c(-c3ccc(N4CCCCC4)cc3)c(C)c(=O)c2cc1Cl
IC50 [1]: > 10 µM

Cc1c(-c2ccc(-n3cccc3)cc2F)[nH]c2cc(F)cc(F)c2c1=O
IC50 [1]: > 10 µM

Cc1c(-c2ccc(N3CCCC(C)C3)cc2)[nH]c2cc(F)cc(F)c2c1=O (centres undefined)
half-life at up to 10 µM [7]: 22.3 min
Activity (HepG2): > 100 µM
IC50 [1]: 0.367 to 0.37 µM
IC90 [8]: 0.63 µM
half-life at up to 10 µM [9]: 10.8 min
half-life at up to 10 µM [10]: 7.9 min

O=c1cc(-c2ccc(N3CCCCC3)cc2)[nH]c2ccccc12
IC50 [1]: > 10 µM

Cc1c(-c2ccc(-n3cccc3)cc2)[nH]c2cccc(F)c2c1=O
IC50 [1]: 0.71 µM

Cc1c(-c2ccc(N3CCCCC3)cc2)[nH]c2cc(F)ccc2c1=O
IC50 [1]: > 10 µM

Cc1c(-c2ccc(-n3cccc3)c(Cl)c2)[nH]c2cc(F)cc(F)c2c1=O
IC50 [1]: > 10 µM

COc1ccc2c(=O)c(C)c(-c3ccc(N4CCN(c5ccccc5)CC4)cc3)[nH]c2c1
IC50 [1]: > 10 µM

Cc1c(-c2ccc(N3CCC(C(F)(F)F)CC3)cc2)[nH]c2cc(F)cc(F)c2c1=O
IC50 [1]: > 10 µM

Cc1c(-c2ccc(N3CCC[C@@H]3C(=O)N(C)C)cc2)[nH]c2cc(F)cc(F)c2c1=O
IC50 [1]: > 10 µM

COc1ccc2c(=O)c(C)c(-c3ccc(N4CCC(F)CC4)cc3)[nH]c2c1
IC50 [1]: 1.32 µM

Cc1c(-c2ccc(N3CC[C@@H]3C(=O)NC(C)(C)C)cc2)[nH]c2cc(F)cc(F)c2c1=O
IC50 [1]: > 10 µM

Cc1c(-c2ccc(N3CCCCC3)cc2)[nH]c2cc(Cl)ccc2c1=O
IC50 [1]: > 10 µM

Cc1c(-c2ccc(-n3cccc3C#N)cc2)[nH]c2cc(F)cc(F)c2c1=O
IC50 [1]: > 10 µM

COc1ccc2c(=O)cc(-c3ccc(N4CCCCC4)cc3)[nH]c2c1
IC50 [1]: > 10 µM

O=c1c(Cl)c(-c2ccc(N3CCCCC3)cc2)[nH]c2ccccc12
IC50 [1]: 1.56 µM

COc1ccc2c(=O)c(Cl)c(-c3ccc(N4CCC(F)CC4)cc3)[nH]c2c1
IC50 [1]: > 10 µM

Cc1c(-c2ccc(N3CCC[C@@H]3C(=O)N3CCOCC3)cc2)[nH]c2cc(F)cc(F)c2c1=O
IC50 [1]: > 10 µM

Cc1c(-c2ccc(N3CCCC(F)(F)C3)cc2)[nH]c2cc(F)cc(F)c2c1=O
half-life at up to 10 µM [7]: 16.2 min
IC50 [1]: 0.36 to 0.361 µM
IC90 [8]: 0.83 µM
half-life at up to 10 µM [9]: 13.7 min
half-life at up to 10 µM [10]: 17.4 min

Cc1c(-c2ccc(-n3ccc4ccccc43)cc2)[nH]c2cc(F)cc(F)c2c1=O
IC50 [1]: > 10 µM

COc1ccc2c(=O)c(C)c(-c3ccc(N4CCN(Cc5ccccc5)CC4)cc3)[nH]c2c1
IC50 [1]: > 10 µM

Cc1c(-c2ccc(N3CCCCC3)cc2)[nH]c2ccc(F)cc2c1=O
IC50 [1]: 1.83 µM

Cc1c(-c2ccc(N3CCC[C@H]3CO)cc2)[nH]c2cc(F)cc(F)c2c1=O
microsomal CLint [2]: > 300 µL/min/mg
fraction unbound at 18 h, 1 µM [3]: 0.045
hepatocyte CLint [4]: 36.5 µL/min/1e6 cells
solubility [5]: 4 µM (≈ 1.48 µg/mL)
IC50 [1]: 1.59 µM
logD [6]: > 3.4

Cc1c(-c2ccc(N3CCC4(CC3)CC4)cc2)[nH]c2cc(F)cc(F)c2c1=O
IC50 [1]: > 10 µM

COc1ccc2c(=O)c(C)c(-c3ccc(N4CCC(Cc5ccccc5)CC4)cc3)[nH]c2c1
IC50 [1]: > 10 µM

Cc1c(-c2ccc(N3CCC[C@@H]3C(=O)NC(C)(C)C)cc2)[nH]c2cc(F)cc(F)c2c1=O
IC50 [1]: 0.96 µM

Cc1c(-c2ccc(N3CCC(Cc4ccccc4)CC3)cc2)[nH]c2ccc(F)cc2c1=O
IC50 [1]: > 10 µM

Cc1c(-c2ccc(NCc3ccccc3)cc2)[nH]c2cc(F)cc(F)c2c1=O
IC50 [1]: > 10 µM

Cc1c(-c2ccc(N3CCC(F)CC3)cc2)[nH]c2ccccc2c1=O
IC50 [1]: > 10 µM

Cc1c(-c2ccc(N3CCC[C@@H]3CO)cc2)[nH]c2cc(F)cc(F)c2c1=O
microsomal CLint [2]: > 300 µL/min/mg
fraction unbound at 18 h, 1 µM [3]: 0.045
hepatocyte CLint [4]: 36.5 µL/min/1e6 cells
solubility [5]: 4 µM (≈ 1.48 µg/mL)
IC50 [1]: 0.32 µM
logD [6]: > 3.4

Cc1c(-c2ccc(N3CCC(C)(O)C3)cc2)[nH]c2cc(F)cc(F)c2c1=O (centres undefined)
IC50 [1]: > 10 µM

Cc1c(-c2ccc(-n3cccn3)cc2)[nH]c2cc(F)cc(F)c2c1=O
IC50 [1]: > 10 µM

Cc1c(-c2cccc(N3CCCCC3)c2)[nH]c2cc(F)cc(F)c2c1=O
IC50 [1]: > 10 µM

COc1cc(OC)c2c(=O)c(C)c(-c3ccc(N4CCCCC4)cc3)[nH]c2c1
IC50 [1]: > 10 µM

Cc1c(-c2ccc(N3CCN(C)CC3)cc2)[nH]c2cc(F)cc(F)c2c1=O
IC50 [1]: > 10 µM

Cc1c(-c2ccc(N3CCCCC3)cc2)[nH]c2cc(F)cc(F)c2c1=O
half-life at up to 10 µM [7]: 8.27 min
Activity (HepG2): > 100 µM
IC50 [1]: 0.27 µM
IC90 [8]: 0.78 µM
half-life at up to 10 µM [9]: 8.3 min
half-life at up to 10 µM [10]: 7.31 min

Cc1c(-c2ccc(N3CCC(C)CC3)cc2)[nH]c2cc(F)cc(F)c2c1=O
half-life at up to 10 µM [7]: < 10 min
Activity (HepG2): > 100 µM
IC50 [1]: 0.61 to 0.611 µM
IC90 [8]: 1.93 µM
half-life at up to 10 µM [9]: < 10 min
half-life at up to 10 µM [10]: < 10 min

Cc1c(-c2ccc(N3CC(F)(F)C3)cc2)[nH]c2cc(F)cc(F)c2c1=O
IC50 [1]: 1.53 µM

COc1cc2[nH]c(-c3ccc(-n4cc(F)c(F)c4)cc3)c(C)c(=O)c2cc1Cl
IC50 [1]: > 10 µM

COc1ccc2c(=O)c(C)c(-c3ccc(-n4cc(F)c(F)c4)cc3)[nH]c2c1
IC50 [1]: > 10 µM
